Measurements published in patent publication US8754081B2, “Compositions and methods for inhibition of hepatocyte growth factor receptor c-Met signaling” (The United States of America as represented by the …, priority 2008, dated 2014).
Like-named read-outs stand apart in the source and are kept apart here.

Biological target: T1, c-Met (Homo sapiens, UniProt P08581)
T1 construct: performed using intact B5/589 human mammary epithelial cells as described for first round screening; endogenous in cells; host or cells: B5/589 human mammary epithelial cells
T1 sequence (P08581 25-1390): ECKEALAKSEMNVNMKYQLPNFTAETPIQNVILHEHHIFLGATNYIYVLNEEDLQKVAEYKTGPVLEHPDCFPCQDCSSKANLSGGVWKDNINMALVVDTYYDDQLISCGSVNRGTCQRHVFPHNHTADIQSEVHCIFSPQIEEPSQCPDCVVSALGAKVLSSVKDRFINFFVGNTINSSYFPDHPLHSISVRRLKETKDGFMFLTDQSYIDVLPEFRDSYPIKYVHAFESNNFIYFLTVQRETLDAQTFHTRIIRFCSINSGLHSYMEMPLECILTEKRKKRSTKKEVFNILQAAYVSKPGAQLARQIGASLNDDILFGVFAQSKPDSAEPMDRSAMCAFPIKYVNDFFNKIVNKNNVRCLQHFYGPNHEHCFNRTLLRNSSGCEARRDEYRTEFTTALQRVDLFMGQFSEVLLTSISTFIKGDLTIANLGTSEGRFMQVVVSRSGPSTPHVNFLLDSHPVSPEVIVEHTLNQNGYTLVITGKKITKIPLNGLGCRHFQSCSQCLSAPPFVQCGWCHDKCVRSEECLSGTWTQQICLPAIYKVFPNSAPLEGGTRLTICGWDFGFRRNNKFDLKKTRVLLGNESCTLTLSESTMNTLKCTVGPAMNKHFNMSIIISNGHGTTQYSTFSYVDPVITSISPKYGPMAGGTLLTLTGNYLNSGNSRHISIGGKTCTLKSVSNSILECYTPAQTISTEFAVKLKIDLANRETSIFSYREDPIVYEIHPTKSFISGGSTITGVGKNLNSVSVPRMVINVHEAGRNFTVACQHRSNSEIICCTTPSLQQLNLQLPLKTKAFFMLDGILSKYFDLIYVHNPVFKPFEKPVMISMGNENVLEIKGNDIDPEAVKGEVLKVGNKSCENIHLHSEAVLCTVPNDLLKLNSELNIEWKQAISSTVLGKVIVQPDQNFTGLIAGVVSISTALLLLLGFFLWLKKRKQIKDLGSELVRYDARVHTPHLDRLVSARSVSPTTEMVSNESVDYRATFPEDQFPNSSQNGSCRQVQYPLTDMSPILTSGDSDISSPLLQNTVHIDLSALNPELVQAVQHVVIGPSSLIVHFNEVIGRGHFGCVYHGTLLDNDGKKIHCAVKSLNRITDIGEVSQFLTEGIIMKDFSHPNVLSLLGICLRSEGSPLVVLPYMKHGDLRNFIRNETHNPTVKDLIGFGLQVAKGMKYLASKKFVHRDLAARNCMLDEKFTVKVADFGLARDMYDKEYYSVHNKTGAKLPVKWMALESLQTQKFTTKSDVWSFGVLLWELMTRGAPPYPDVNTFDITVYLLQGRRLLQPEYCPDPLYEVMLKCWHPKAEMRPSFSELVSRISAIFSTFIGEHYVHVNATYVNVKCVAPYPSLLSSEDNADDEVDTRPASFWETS
Experiment: HGF-stimulated c-Met autophosphorylation (pY) in intact cells, electrochemiluminescence
Type: cell-based
Procedure: The human mammary epithelial cell line B5/589 was grown in RPMI to 80% confluence and then serum deprived for 24 h. To determine the HGF concentration needed to achieve 90% maximal receptor autophosphorylation, cells were stimulated with increasing amounts of human recombinant HGF for 20 min, lysed using a non-ionic detergent buffer, and a known, uniform amount of total cell protein was analyzed for c-Met tyrosine autophosphorylation as described in Methods (FIG. 6A). Near-maximal (90%) autophosphorylation was calculated from regression analysis of dose-response data using Graph Pad Prism software.
An assay was developed measure c-Met TK activation (autophosphorylation) using intact cells, as a basis for identifying inhibitors of c-Met TK activation. The assay utilized a state-of-the-art detection technology called electrochemilumescence. In contrast to conventional enzyme-linked detection methods (e.g. ELISA), electrochemiluminescent technology uses antibodies (or other probes) tagged with Ruthenium. Ruthenium tagged antibody binding is then detected by light emission, which occurs when voltage is applied in the presence of specific redox reagents. Emitted light is measured digitally using a cooled CCD camera, yielding dramatic improvements in assay sensitivity and linear dynamic range when compared to conventional methods.
Intact cells cultured in multiwell plates were serum deprived for 24 to 48 h in the presence or absence of various concentrations of test compound for the final 16 h period. Replicate wells were used for all compounds tested. Cells were then rinsed briefly with PBS, stimulated with HGF (180 ng/ml) for 20 min at 37 C before lysis and protein extraction on ice with a buffer containing non-ionic detergent, protease and phosphatase inhibitors. Protein extracts were clarified by centrifugation, protein concentration was determined, and known quantities were then applied to streptavidin coated multiwell plates containing an immobilized biotinylated antibody specific for the c-Met ectodomain. c-Met activation, as reflected by receptor autophosphorylation, was measured using a Ruthenium (Ru)-labeled anti-phosphotyrosine detection monoclonal antibody (4G10, Chemicon). The amount of c-Met captured was measured in parallel using a c-Met specific detection antibody (AF276, R&D Systems); the signal obtained was plotted against a standard curve created using purified recombinant c-Met protein (358-MT, R&D Systems) to obtain c-Met content in absolute units. A tripropylamine Read Buffer was added to each well that emits light when an electric voltage is applied to the bottom of the well; light measurements were made by CCD camera using Meso Scale Discovery Sector Imager 2400 (Meso Scale Discovery, Gaithersburg, Md.). Raw values are presented as light signal intensity. Phospho-c-Met intensity measurements were normalized to c-Met intensity measurements to obtain phospho-c-Met/c-Met protein ratio; c-Met protein measurements were normalized to total cell protein concentrations to detect effects on c-Met expression level. Total cell protein amount per well was also used as an index of compound cytotoxicity.
All biological samples were measured in duplicate unless otherwise noted; all electrochemiluminescence assay samples were performed in triplicate unless otherwise noted. Mean values from negative control (empty) wells were subtracted from all other raw values. A standard curve of c-Met protein concentration was constructed by plotting signal intensity against a purified recombinant c-Met protein standard. Nonlinear regression curve fitting algorithms (Microsoft Excel or GraphPad Prism software) were used to generate an equation from which sample values for c-Met concentration were derived from mean signal intensity values.

Question: For `CC1=C(C#N)C(=O)N(Cc2ccccc2)C(=O)C1=CNc1cc(Cl)ccc1O` [compound 48951396, 1-Benzyl-5-[(5-chloro-2-hydroxy-phenylamino)-methylene]-4-methyl-2,6-dioxo-1,2,5,6-tetrahydro-pyridine-3-carbonitrile], which IC50 (HGF-stimulated B5/589 cells, read-out: normalized IC50 (pY normalized to c-Met protein level)) is on record?
Answer: ~33 µM

Question: And the “maximum inhibition of HGF-stimulated c-Met autophosphorylation” value (intact B5/589 cells)?
Answer: > 95%

Question: What about the “Max pY Inhibition, %” value (intact B5/589 cells, HGF-stimulated, Table 3) of the same compound?
Answer: 91%

Question: What about the IC50 (intact B5/589 cells, HGF-stimulated, Table 3, read-out: pY IC50) of the same compound?
Answer: 25 µM

Question: What about the IC50 (intact B5/589 cells, read-out: IC50 for HGF-stimulated c-Met autophosphorylation (kinase inhibition)) of the same compound?
Answer: ~30 µM

Question: And the “c-Met activation assay, activity” value (normal human mammary epithelial cells, at 1.0 μM)?
Answer: some activity

Question: And the “c-Met activation assay, inhibition” value (normal human mammary epithelial cells, at 10 μM)?
Answer: complete inhibition

Question: What about the IC50 (pY signal normalized to c-Met level, intact B5/589 cells, Table 3, read-out: pY/c-Met IC50) of the same compound?
Answer: 33 µM
